Results taken from ChEMBL document CHEMBL1909046, “DrugMatrix in vitro pharmacology data”.

Legend:
[1] = biological target: T1, Alpha-1A adrenergic receptor (Rattus norvegicus, UniProt P43140); experiment: DRUGMATRIX: Alpha-1A adrenergic receptor radioligand binding (ligand: prazosin); format: cell membranes, Wistar, Submaxillary gland, Membrane; conditions: Not Active = under 50% inhibition at 10 µM
T1 sequence (P43140 whole entry): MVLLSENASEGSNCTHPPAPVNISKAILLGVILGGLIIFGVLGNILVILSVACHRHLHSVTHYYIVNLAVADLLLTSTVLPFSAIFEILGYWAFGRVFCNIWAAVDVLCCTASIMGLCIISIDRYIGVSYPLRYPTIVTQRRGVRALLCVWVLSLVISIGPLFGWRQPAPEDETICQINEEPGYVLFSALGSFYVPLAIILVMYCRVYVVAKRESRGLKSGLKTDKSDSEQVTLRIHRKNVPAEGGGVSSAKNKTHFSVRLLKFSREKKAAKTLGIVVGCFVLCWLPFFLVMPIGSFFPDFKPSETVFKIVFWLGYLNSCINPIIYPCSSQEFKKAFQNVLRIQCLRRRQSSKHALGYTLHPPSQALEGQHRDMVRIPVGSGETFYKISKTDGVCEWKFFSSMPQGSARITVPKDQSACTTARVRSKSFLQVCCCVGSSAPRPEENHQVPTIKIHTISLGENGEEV

[2] = biological target: T2, C-X-C chemokine receptor type 1 (Homo sapiens, UniProt P25024); further: in other assays of this panel Not Active means under 50% inhibition at 10 µM
T2 sequence (P25024 whole entry): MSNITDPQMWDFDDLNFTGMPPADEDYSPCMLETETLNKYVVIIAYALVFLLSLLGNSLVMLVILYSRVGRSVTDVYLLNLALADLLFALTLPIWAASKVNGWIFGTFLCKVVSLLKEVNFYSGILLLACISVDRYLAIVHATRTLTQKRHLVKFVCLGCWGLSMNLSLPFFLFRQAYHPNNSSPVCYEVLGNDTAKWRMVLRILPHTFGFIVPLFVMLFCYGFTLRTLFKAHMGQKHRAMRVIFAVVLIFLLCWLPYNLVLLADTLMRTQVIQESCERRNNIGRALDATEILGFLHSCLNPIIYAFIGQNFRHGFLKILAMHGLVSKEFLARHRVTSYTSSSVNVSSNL

[3] = biological target: Epidermal growth factor receptor (Homo sapiens, UniProt P00533); experiment: DRUGMATRIX: Protein Tyrosine Kinase, EGF Receptor enzyme inhibition (substrate: Poly(Glu:Tyr)); format: cell-based, Insect cells; conditions: insect cells; Not Active = under 50% inhibition at 10 µM
Chain of Epidermal growth factor receptor (P00533 whole entry): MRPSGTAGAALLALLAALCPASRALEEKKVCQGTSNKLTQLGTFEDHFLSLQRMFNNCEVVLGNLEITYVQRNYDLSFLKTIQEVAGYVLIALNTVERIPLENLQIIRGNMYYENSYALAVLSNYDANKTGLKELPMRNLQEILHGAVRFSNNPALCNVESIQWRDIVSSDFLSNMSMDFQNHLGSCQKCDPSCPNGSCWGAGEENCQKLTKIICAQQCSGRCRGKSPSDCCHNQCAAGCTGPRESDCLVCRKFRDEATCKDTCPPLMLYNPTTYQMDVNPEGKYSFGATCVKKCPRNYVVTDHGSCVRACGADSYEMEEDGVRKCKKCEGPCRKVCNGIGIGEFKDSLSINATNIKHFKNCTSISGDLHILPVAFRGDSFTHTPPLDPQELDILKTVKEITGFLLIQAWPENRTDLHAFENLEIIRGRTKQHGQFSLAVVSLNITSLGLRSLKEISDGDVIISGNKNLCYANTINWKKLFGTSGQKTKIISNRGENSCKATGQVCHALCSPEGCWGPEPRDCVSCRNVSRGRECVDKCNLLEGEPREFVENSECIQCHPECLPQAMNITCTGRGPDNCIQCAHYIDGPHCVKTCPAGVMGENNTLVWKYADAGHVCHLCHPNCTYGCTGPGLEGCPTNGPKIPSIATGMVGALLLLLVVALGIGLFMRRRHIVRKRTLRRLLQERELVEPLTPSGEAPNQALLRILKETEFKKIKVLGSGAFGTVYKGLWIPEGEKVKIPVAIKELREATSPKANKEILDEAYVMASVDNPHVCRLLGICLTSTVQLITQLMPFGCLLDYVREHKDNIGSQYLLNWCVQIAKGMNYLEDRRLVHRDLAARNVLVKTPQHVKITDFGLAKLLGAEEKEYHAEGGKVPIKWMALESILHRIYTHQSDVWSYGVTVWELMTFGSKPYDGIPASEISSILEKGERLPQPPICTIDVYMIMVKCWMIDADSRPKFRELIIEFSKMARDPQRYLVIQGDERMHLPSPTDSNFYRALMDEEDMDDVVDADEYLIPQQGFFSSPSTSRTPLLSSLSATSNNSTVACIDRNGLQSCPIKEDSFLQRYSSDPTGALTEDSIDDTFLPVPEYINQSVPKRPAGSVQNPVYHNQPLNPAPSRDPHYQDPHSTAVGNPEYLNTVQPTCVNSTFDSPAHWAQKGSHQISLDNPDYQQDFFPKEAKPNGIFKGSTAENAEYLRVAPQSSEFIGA

[4] = DRUGMATRIX: Leukotriene, BLT (LTB4) radioligand binding (ligand: [3H]LTB4); format: cell membranes, Membrane; conditions: u-937; Not Active = under 50% inhibition at 10 µM
Melanocortin receptor 3 = Melanocortin receptor 3 (Homo sapiens, UniProt P41968); format: cell membranes, HEK293, Membrane; conditions: hek293; further: in other assays of this panel Not Active means under 50% inhibition at 10 µM
Chain of Melanocortin receptor 3 (P41968 whole entry): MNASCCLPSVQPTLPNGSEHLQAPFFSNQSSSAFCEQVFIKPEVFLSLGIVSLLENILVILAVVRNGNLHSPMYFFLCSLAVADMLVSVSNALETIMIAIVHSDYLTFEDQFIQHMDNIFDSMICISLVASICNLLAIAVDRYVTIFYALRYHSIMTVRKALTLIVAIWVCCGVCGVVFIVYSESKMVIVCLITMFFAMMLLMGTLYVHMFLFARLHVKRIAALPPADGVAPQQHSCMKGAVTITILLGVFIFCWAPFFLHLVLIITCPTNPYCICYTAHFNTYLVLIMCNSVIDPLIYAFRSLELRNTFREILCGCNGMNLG

Calcitonin receptor = biological target: T3, Calcitonin receptor (Homo sapiens, UniProt P30988); format: cell membranes, Membrane; conditions: t47d; further: in other assays of this panel Not Active means under 50% inhibition at 10 µM
T3 sequence (P30988 whole entry): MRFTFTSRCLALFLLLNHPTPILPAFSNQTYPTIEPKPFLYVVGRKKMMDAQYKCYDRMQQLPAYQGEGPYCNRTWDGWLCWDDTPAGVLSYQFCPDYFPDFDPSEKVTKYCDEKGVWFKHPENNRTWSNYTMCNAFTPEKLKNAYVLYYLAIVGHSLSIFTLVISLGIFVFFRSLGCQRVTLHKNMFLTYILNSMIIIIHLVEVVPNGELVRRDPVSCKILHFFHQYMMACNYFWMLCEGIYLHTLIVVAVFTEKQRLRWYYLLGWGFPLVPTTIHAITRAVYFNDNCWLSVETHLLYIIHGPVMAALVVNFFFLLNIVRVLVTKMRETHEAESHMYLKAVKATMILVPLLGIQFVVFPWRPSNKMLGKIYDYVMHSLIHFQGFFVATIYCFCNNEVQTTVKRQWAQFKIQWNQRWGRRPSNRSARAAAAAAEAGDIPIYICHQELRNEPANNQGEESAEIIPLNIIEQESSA

Cathepsin G = biological target: T4, Cathepsin G (Homo sapiens, UniProt P08311); format: tissue-based; conditions: neutrophil;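 further: inhibition of Cathepsin G enzyme activity, tested on an AMC-conjugated peptide substrate; in other assays of this panel Not Active means under 50% inhibition at 10 µM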
T4 sequence (P08311 whole entry): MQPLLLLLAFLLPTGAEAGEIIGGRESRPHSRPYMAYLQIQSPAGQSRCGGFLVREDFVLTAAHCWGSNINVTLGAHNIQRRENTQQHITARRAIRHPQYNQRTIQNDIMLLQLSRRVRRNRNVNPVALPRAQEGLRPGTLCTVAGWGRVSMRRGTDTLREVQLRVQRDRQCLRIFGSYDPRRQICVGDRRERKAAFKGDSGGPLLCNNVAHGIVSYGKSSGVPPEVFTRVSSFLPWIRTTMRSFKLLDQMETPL

Glycine receptor = Glycine receptor (Rattus norvegicus, UniProt P22771+P24524+P07727+P20781); format: cell membranes, Wistar, Spinal cord, Membrane; further: in other assays of this panel Not Active means under 50% inhibition at 10 µM

CC(C)NNC(=O)c1ccncc1 [IPRONIAZID]
Not Active: IC50 [1] | IC50 [2] | IC50 [3] | IC50 [4] | Ki [4] | IC50 (Melanocortin receptor 3) | IC50 (Calcitonin receptor) | IC50 (Cathepsin G) | IC50 (Glycine receptor)

Cc1c(OCC(F)(F)F)ccnc1C[S+]([O-])c1nc2ccccc2[nH]1 (centres undefined) [LANSOPRAZOLE]
Not Active: IC50 [1] | IC50 [2] | IC50 [3] | IC50 [4] | Ki [4] | IC50 (Melanocortin receptor 3) | IC50 (Calcitonin receptor) | IC50 (Cathepsin G) | IC50 (Glycine receptor)

COc1ccc2[nH]cc(CCNC(C)=O)c2c1 [MELATONIN]
Not Active: IC50 [1] | IC50 [2] | IC50 [3] | IC50 [4] | Ki [4] | IC50 (Melanocortin receptor 3) | IC50 (Calcitonin receptor) | IC50 (Cathepsin G) | IC50 (Glycine receptor)

NC(=O)C[S+]([O-])C(c1ccccc1)c1ccccc1 (centres undefined) [MODAFINIL]
Not Active: IC50 [1] | IC50 [2] | IC50 [3] | IC50 [4] | Ki [4] | IC50 (Melanocortin receptor 3) | IC50 (Calcitonin receptor) | IC50 (Cathepsin G) | IC50 (Glycine receptor)

CCN(CC)CCOCCC1=CCC2CC1C2(C)C (centres undefined) [MYRTECAINE]
Not Active: IC50 [1] | IC50 [2] | IC50 [3] | IC50 [4] | Ki [4] | IC50 (Melanocortin receptor 3) | IC50 (Calcitonin receptor) | IC50 (Cathepsin G) | IC50 (Glycine receptor)

O=C(O)c1cccnc1Nc1cccc(C(F)(F)F)c1 [NIFLUMIC ACID]
Not Active: IC50 [1] | IC50 [2] | IC50 [3] | IC50 [4] | Ki [4] | IC50 (Melanocortin receptor 3) | IC50 (Calcitonin receptor) | IC50 (Cathepsin G) | IC50 (Glycine receptor)

O=C(N/N=C/c1ccc([N+](=O)[O-])o1)c1cc([N+](=O)[O-])cc([N+](=O)[O-])c1O [NIFURSOL]
Not Active: IC50 [1] | IC50 [2] | IC50 [3] | IC50 [4] | Ki [4] | IC50 (Melanocortin receptor 3) | IC50 (Calcitonin receptor) | IC50 (Cathepsin G) | IC50 (Glycine receptor)

COC(=O)Nc1nc2ccc(C(=O)c3cccs3)cc2[nH]1 [NOCODAZOLE]
Not Active: IC50 [1] | IC50 [2] | IC50 [3] | IC50 [4] | Ki [4] | IC50 (Melanocortin receptor 3) | IC50 (Calcitonin receptor) | IC50 (Cathepsin G) | IC50 (Glycine receptor)

C#CC1(O)CC[C@H]2[C@@H]3CCC4=CC(=O)CC[C@@H]4[C@H]3CC[C@@]21CC (some centres undefined) [NORGESTREL]
Not Active: IC50 [1] | IC50 [2] | IC50 [3] | IC50 [4] | Ki [4] | IC50 (Melanocortin receptor 3) | IC50 (Calcitonin receptor) | IC50 (Cathepsin G) | IC50 (Glycine receptor)

COC(=O)Nc1nc2ccc([S+]([O-])c3ccccc3)cc2[nH]1 (centres undefined) [OXFENDAZOLE]
Not Active: IC50 [1] | IC50 [2] | IC50 [3] | IC50 [4] | Ki [4] | IC50 (Melanocortin receptor 3) | IC50 (Calcitonin receptor) | IC50 (Cathepsin G) | IC50 (Glycine receptor)

CC(=O)O[C@H]1C(=O)[C@@]2(C)[C@H]([C@H](OC(=O)c3ccccc3)[C@]3(O)C[C@H](OC(=O)[C@H](O)[C@@H](NC(=O)c4ccccc4)c4ccccc4)C(C)=C1C3(C)C)[C@]1(OC(C)=O)CO[C@@H]1C[C@@H]2O [PACLITAXEL]
Not Active: IC50 [1] | IC50 [2] | IC50 [3] | IC50 [4] | Ki [4] | IC50 (Melanocortin receptor 3) | IC50 (Calcitonin receptor) | IC50 (Cathepsin G) | IC50 (Glycine receptor)
